For 25 compounds, Ki and EC50 results are on record in US8198311B2, “Modulators of glucocorticoid receptor, AP-1, and/or NF-κB activity and use thereof” (Bristol-Myers Squibb Company, priority 2006, dated 2012).

In assay [1] the target is T1, human full-length glucocorticoid receptor (Homo sapiens, UniProt P04150).
T1 construct: recombinantly expressed human full-length glucocorticoid receptor; purchased PanVera Co., Madison, Wis; P2816
T1 sequence (P04150 1-777): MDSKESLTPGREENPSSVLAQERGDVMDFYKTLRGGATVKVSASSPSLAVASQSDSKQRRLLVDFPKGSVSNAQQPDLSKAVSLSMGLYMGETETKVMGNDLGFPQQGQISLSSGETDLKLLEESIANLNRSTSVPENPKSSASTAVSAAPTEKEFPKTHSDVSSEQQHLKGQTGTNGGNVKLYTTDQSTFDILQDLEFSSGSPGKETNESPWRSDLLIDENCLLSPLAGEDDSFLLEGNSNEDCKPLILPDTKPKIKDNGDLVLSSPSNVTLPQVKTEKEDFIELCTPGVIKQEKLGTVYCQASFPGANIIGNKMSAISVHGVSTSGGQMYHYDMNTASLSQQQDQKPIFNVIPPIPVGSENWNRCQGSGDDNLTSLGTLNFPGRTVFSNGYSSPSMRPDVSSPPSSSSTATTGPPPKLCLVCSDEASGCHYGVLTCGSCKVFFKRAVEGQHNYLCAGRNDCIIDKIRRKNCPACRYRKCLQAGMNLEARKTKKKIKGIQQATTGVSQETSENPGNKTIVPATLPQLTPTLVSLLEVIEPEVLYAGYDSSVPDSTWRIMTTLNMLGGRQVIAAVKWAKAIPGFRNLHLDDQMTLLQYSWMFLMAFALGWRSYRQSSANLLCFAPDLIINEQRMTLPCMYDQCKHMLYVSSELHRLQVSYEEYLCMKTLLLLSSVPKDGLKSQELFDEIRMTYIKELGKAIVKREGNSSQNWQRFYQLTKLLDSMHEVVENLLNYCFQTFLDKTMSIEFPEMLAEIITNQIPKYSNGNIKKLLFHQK
The experiment in a line: Glucocorticoid Receptor Binding Assay (II), fluorescence polarization competitor kit (Fluormone GS1). The settings on record: cell lysate with recombinant human full-length GR. As for the experimental part: In order to measure the binding of compounds on the glucocorticoid receptor a commercially available kit was used (Glucocorticoid receptor competitor assay kit, PanVera Co., Madison, Wis., P2816). Briefly, a cell lysate containing recombinantly expressed human full-length glucocorticoid receptor was mixed with a fluorescently labeled glucocorticoid (1 nM Fluormone GS1) in the presence or absence of test compound. After one hour at room temperature, the fluorescence polarization (FP) of the samples were measured. […] Test molecules were analyzed in the concentration range from 2.4 nM to 40 microMolar.

The subject of assay [2] is AP-1 induced transcriptional activity. The experiment in a line: Cellular Transrepressional Assay (AP-1 luciferase reporter in A549 cells, PMA-activated). The settings on record: pAP-1-Luc, 10 ng/ml PMA, read-out: AP-1 (EC50, nM) (Cellular Transrepression Assay). The assay is classed as cell-based. A digest of the protocol: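 A549 cells stably carrying a 7×AP-1-luciferase reporter, stimulated with 10 ng/ml PMA with or without compound (0.1 nM-40 μM) for 7 h. Luciferase luminescence read 10 min after reagent addition; repression is percentage decrease of PMA-alone signal, EC50 by curve fitting.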

Each structure is given as a SMILES string. Where two headings read alike, the source gives them in different places. Some results are limits rather than exact numbers.

Take `CC(C)(C)CC(=O)NCC(C)(C)[C@@H](c1ccccc1)c1ccc2c(cnn2-c2ccc(F)cc2)c1` [Example 1, (S)-N-(3-(1-(4-fluorophenyl)-1H-indazol-5-yl)-2,2-dimethyl-3-phenylpropyl)-3,3-dimethylbutanamide]: the Ki in assay [1] turned out to be 8.3 nM. Also, in assay [2] (Homo sapiens, A549, 7 h), the concentration giving a half-maximal response (EC50) was determined as 1280 nM.
Consider `CC(C)(CNS(=O)(=O)CC(F)(F)F)C(c1ccccc1)c1ccc2[nH]ncc2c1` (stereo in doubt) [(R)-83, (S)-N-(3-(1H-indazol-5-yl)-2,2-dimethyl-3-phenylpropyl)-2,2,2-trifluoroethanesulfonamide], for which, in assay [1], the Ki was 547 nM. Besides, the EC50 in assay [2] (Homo sapiens, A549, 7 h) is above 10000 nM.
Turning to `CC(C)(COC(=O)NCC(F)(F)F)C(c1ccccc1)c1ccc2c(cnn2-c2ccc(F)cc2)c1` (centres unmarked) [Example 132, 3-(1-(4-Fluorophenyl)-1H-indazol-5-yl)-2,2-dimethyl-3-phenylpropyl 2,2,2-trifluoroethylcarbamate], the Ki in assay [1] came out at 28 nM. Moreover, the EC50 in assay [2] (Homo sapiens, A549, 7 h) is above 10000 nM.
Consider `O=C(CC(F)(F)F)NCC1CC1(c1ccccc1)c1ccc2c(cnn2-c2ccc(F)cc2)c1` (centres unmarked) [Example 88, 3,3,3-Trifluoro-N-((2-(1-(4-fluorophenyl)-1H-indazol-5-yl)-2-phenylcyclopropyl)methyl)propanamide], for which, in assay [1], the Ki stood at 86 nM. For the same compound, in assay [2] (Homo sapiens, A549, 7 h), the EC50 was above 10000 nM.
Regarding `O=S(=O)(CC(F)(F)F)NCC1CC1(c1ccccc1)c1ccc2c(cnn2-c2ccc(F)cc2)c1` (centres unmarked) [Example 89, 2,2,2-trifluoro-N-((2-(1-(4-fluorophenyl)-1H-indazol-5-yl)-2-phenylcyclopropyl)methyl)ethanesulfonamide], the Ki in assay [1] was determined as 43 nM. Besides, the EC50 in assay [2] (Homo sapiens, A549, 7 h) is above 10000 nM.
Consider `CC(C)CC(c1ccc2c(cnn2-c2ccc(F)cc2)c1)C(C)(C)CNC(=O)C(F)(F)F` (centres unmarked) [Example 25, 2,2,2-trifluoro-N-(3-(1-(4-fluorophenyl)-1H-indazol-5-yl)-2,2,5-trimethylhexyl)acetamide], for which the Ki in assay [1] stood at 8.2 nM. Further, in assay [2] (Homo sapiens, A549, 7 h), the EC50 was above 10000 nM.
For the compound `CC(C)(C(=O)C(F)(F)F)C(c1ccccc1)c1ccc2c(cnn2-c2ccc(F)cc2)c1` (centres unmarked) [Example 131, 1,1,1-Trifluoro-4-(1-(4-fluorophenyl)-1H-indazol-5-yl)-3,3-dimethyl-4-phenylbutan-2-one], the Ki in assay [1] worked out at 20 nM. For the same compound, the EC50 in assay [2] (Homo sapiens, A549, 7 h) is above 10000 nM.
In the case of `CC(C)CC(c1ccc2c(cnn2-c2ccc(F)cc2)c1)C(C)(C)CNC(=O)NC(C)(C)CN1CCOCC1` (centres unmarked) [Example 33, 1-(3-(1-(4-fluorophenyl)-1H-indazol-5-yl)-2,2,5-trimethylhexyl)-3-(2-methyl-1-morpholinopropan-2-yl)urea], in assay [1], the Ki amounted to 74 nM. Also, the concentration for a half-maximal effect (EC50) in assay [2] (Homo sapiens, A549, 7 h) was above 10000 nM.
As to `CC(C)(C(=O)C1CC1)C(c1ccccc1)c1ccc2c(cnn2-c2ccc(F)cc2)c1` (centres unmarked) [Example 126], the Ki in assay [1] was determined as 12 nM. For the same compound, in assay [2] (Homo sapiens, A549, 7 h), the EC50 was above 10000 nM.
As to `CC(C)CC(c1ccc2c(cnn2-c2ccc(F)cc2)c1)C(C)(C)CNS(=O)(=O)CC(F)(F)F` (single isomer, unassigned) [Example 57A, 2,2,2-trifluoro-N-(3-(1-(4-fluorophenyl)-1H-indazol-5-yl)-2,2,5-trimethylhexyl)-ethanesulfonamide], the Ki in assay [1] was determined as 59 nM. The EC50 in assay [2] (Homo sapiens, A549, 7 h) was above 10000 nM.
The like results for `CCS(=O)(=O)NCC(C)(C)[C@@H](c1ccccc1)c1ccc2c(cnn2-c2ccc(F)cc2)c1` [Example 11, (S)-N-(3-(1-(4-fluorophenyl)-1H-indazol-5-yl)-2,2-dimethyl-3-phenylpropyl)ethanesulfonamide] were, in that order, 16 nM and 29 nM.
Consider `CC(=O)NCC(C)(C)[C@H](c1ccccc1)c1ccc2c(cnn2-c2ccc(F)cc2)c1` [Example 22, (R)-N-(3-(1-(4-fluorophenyl)-1H-indazol-5-yl)-2,2-dimethyl-3-phenylpropyl)acetamide], for which, in assay [1], the Ki came to 17 nM. Also, in assay [2] (Homo sapiens, A549, 7 h), the concentration for a half-maximal effect (EC50) came to 679 nM.
As for `CC(C)(CNC(=O)CC(F)(F)F)[C@@H](c1ccccc1)c1ccc2[nH]ncc2c1` [(S)-82, (S)-N-(3-(1H-indazol-5-yl)-2,2-dimethyl-3-phenylpropyl)-3,3,3-trifluoropropanamide], in assay [1], the Ki was found to be 39 nM. Besides, in assay [2] (Homo sapiens, A549, 7 h), the EC50 is above 10000 nM.
On to `O=S(=O)(CC(F)(F)F)NCCC(c1ccccc1)c1ccc2c(cnn2-c2ccc(F)cc2)c1` (centres unmarked) [Example 110, 2,2,2-Trifluoro-N-(3-(1-(4-fluorophenyl)-1H-indazol-5-yl)-3-phenylpropyl)ethanesulfonamide], for which the Ki in assay [1] stood at 21 nM. For the same compound, the EC50 in assay [2] (Homo sapiens, A549, 7 h) was above 10000 nM.
For `CC(C)(CNC(=O)C1(C(F)(F)F)CC1)[C@@H](c1ccccc1)c1ccc2c(cnn2-c2ccc(F)cc2)c1` [Example 10, (S)-N-(3-(1-(4-fluorophenyl)-1H-indazol-5-yl)-2,2-dimethyl-3-phenylpropyl)-1-(trifluoromethyl)cyclopropanecarboxamide] the same measures were 19 nM and 143 nM.
The like results for `CC(C)(CNS(=O)(=O)CC(F)(F)F)[C@@H](c1ccccc1)c1ccc2[nH]ncc2c1` [(S)-83, (S)-N-(3-(1H-indazol-5-yl)-2,2-dimethyl-3-phenylpropyl)-2,2,2-trifluoroethanesulfonamide] were, in that order, 34 nM and above 10000 nM.
On to `CC(C)(CNc1nncs1)C(c1ccccc1)c1ccc2c(cnn2-c2ccc(F)cc2)c1` (centres unmarked) [Example 109, N-(3-(1-(4-Fluorophenyl)-1H-indazol-5-yl)-2,2-dimethyl-3-phenylpropyl)-1,3,4-thiadiazol-2-amine], for which, in assay [1], the Ki was 9.2 nM. Further, the EC50 in assay [2] (Homo sapiens, A549, 7 h) amounted to 43 nM.
For `CC(C)(CNC(=O)C(=O)O)[C@H](c1ccccc1)c1ccc2c(cnn2-c2ccc(F)cc2)c1` [Example 24, (R)-2-(3-(1-(4-fluorophenyl)-1H-indazol-5-yl)-2,2-dimethyl-3-phenylpropylamino)-2-oxoacetic acid], in assay [1], the Ki worked out at 351 nM. Further, the EC50 in assay [2] (Homo sapiens, A549, 7 h) is above 10000 nM.
With `CC(C)(C(c1ccccc1)c1ccc2c(cnn2-c2ccc(F)cc2)c1)C(O)(c1cccs1)C(F)(F)F` (centres unmarked) [Example 130, 1,1,1-Trifluoro-4-(1-(4-fluorophenyl)-1H-indazol-5-yl)-3,3-dimethyl-4-phenyl-2-(thiophen-2-yl)butan-2-ol], the Ki in assay [1] was 252 nM. In addition, the EC50 in assay [2] (Homo sapiens, A549, 7 h) is above 10000 nM.
The like results for `COC(=O)C(=O)NCC(C)(C)[C@H](c1ccccc1)c1ccc2c(cnn2-c2ccc(F)cc2)c1` [Example 23, (R)-methyl 2-(3-(1-(4-fluorophenyl)-1H-indazol-5-yl)-2,2-dimethyl-3-phenylpropylamino)-2-oxoacetate] were, in that order, 62 nM and 5960 nM.
Take `CC(C)(CNC(=O)Cc1cccs1)[C@H](c1ccccc1)c1ccc2c(cnn2-c2ccc(F)cc2)c1` [Example 21, (R)-N-(3-(1-(4-fluorophenyl)-1H-indazol-5-yl)-2,2-dimethyl-3-phenylpropyl)-2-(thiophen-2-yl)acetamide]: in assay [1], the Ki stood at 39 nM. In assay [2] (Homo sapiens, A549, 7 h), the EC50 stood at 266 nM.
For `CC(C)(CNS(C)(=O)=O)[C@@H](c1ccccc1)c1ccc2c(cnn2-c2ccc(F)cc2)c1` [Example 6, (S)-N-(3-(1-(4-fluorophenyl)-1H-indazol-5-yl)-2,2-dimethyl-3-phenylpropyl)methanesulfonamide] the same measures were 4.9 nM and 47 nM.
As for `CC(C)CC(c1ccc2c(cnn2-c2ccc(F)cc2)c1)C(C)(C)CNC(=O)NCC(F)(F)F` (single isomer, unassigned) [Example 58B, 1-(3-(1-(4-fluorophenyl)-1H-indazol-5-yl)-2,2,5-trimethylhexyl)-3-(2,2,2-trifluoroethyl)urea], in assay [1], the Ki was found to be 8.8 nM. Moreover, in assay [2] (7 hours), the EC50 amounted to 106 nM.
In the case of `CC(C)n1ncc2cc([C@H](c3ccccc3)C(C)(C)CNC(=O)CC(F)(F)F)ccc21` [Example 86, (S)—N-(2,2-Dimethyl-3-(1-isopropyl-1H-indazol-5-yl)-3-phenylpropyl)-3,3,3-trifluoropropanamide], in assay [1], the inhibition constant (Ki) was determined as 13 nM. For the same compound, in assay [2] (Homo sapiens, A549, 7 h), the concentration for a half-maximal effect (EC50) is above 10000 nM.
For the compound `CC(C)CC(c1ccc2c(cnn2-c2ccc(F)cc2)c1)C(C)(C)CNC(=O)CC(F)(F)F` (centres unmarked) [Example 59A, 3,3,3-trifluoro-N-(3-(1-(4-fluorophenyl)-1H-indazol-5-yl)-2,2,5-trimethylhexyl)propanamide], the inhibitory constant (Ki) in assay [1] came out at 6.9 nM. For the same compound, the EC50 in assay [2] (Homo sapiens, A549, 7 h) was 57 nM.
